Literature values, collected in patent publication US20040259937A1, “Hydroxycitric acid complex metal salts, composition, and methods” (INDFRAG LIMITED, priority 2003, published 2004).

Settings: converted to the lactone form during processing

## O=C(O)CC(O)(C(=O)O)C(O)C(=O)O (single isomer, unassigned; (-)) [(−)hydroxycitric acid]
  stability of pure free acid: not stable
